# Source: patent publication US9808434B2, “Compound for treating cancer and diabetes” (CITY OF HOPE, priority 2011, dated 2017)
# What was measured:
# PBT-017 = experiment: Glioma ATP viability assay, PBT-017; assay type: cell-based; settings: 72 h
# Method: Cells of each cell line (U251, U87, PBT-017, PBT018, PBT003 and PBT028) were treated with various concentrations (0˜100 μM) of COH-SR4 for 72 hours. Cell viabilities were determined by ATP viability assays. Data were represented as a ratio to vehicle (DMSO) control, and plotted as mean±SEM (n=12) obtained from 2˜3 experiments (FIG. 34A).
# Cells of each cell line (U87, U251, PBT003 and PVT-017) were treated with various concentrations (0˜100 μM) of COH-SR4 for 72 hours. Cell viabilities were determined by ATP viability assays. Data were represented as a ratio to vehicle (DMSO) control, and plotted as mean±SEM (n=12) obtained from 2-3 experiments (FIG. 34B).
# Cells of each cell line were treated with various concentrations (0˜100 μM) of COH-SR4 or various concentrations (0˜1000 μM) of TMZ for 72 hours. Cell viabilities were determined by ATP viability assays. Data were represented as a ratio to untreated cells as control, and plotted as mean±SEM (n=12) obtained from 2˜3 experiments (FIGS. 43A-B).
# PBT-017 glioma cells = experiment: Apoptosis of PBT-017 glioma cells, cell counts; assay type: cell-based; settings: 2 or 10 μM, 4 days
# Method: PBT-017 glioma cells were incubated with nothing (control), DMSO, and COH-SR4 at 2 μM or 10 μM for 4 days.
# [1] = test system: CD133 sorted PBT-017 glioma cells; experiment: Killing of CD133 sorted PBT-017 glioma cells; assay type: cell-based; settings: 0-100 μM, 4 days
# Method: CD133 positive glioma stem cells were sorted by FACS. Unsorted cells, CD133 positive cells, and CD133 negative PBT-017 glioma cells were treated with COH-SR4 at various concentrations (0˜100 μM) for 4 days, respectively. Data were represented as a ratio to untreated control, and plotted as mean±SEM (n=12) obtained from 2˜3 experiments (FIG. 39A).
# HAVSMC = experiment: Colony formation assay, HAVSMC; assay type: cell-based, human; settings: for colony forming potential: vs untreated control
# Method: (§1) Cell survival was evaluated using a standard colony-forming assay. In total, 1×10^5 cells/mL were incubated with COH-SR4 (1.5 μM or 5 μM) or elesclomol (5 μM) for 24 h, and aliquots of 50 or 100 μL were added to 60 mm size petri dishes, containing 4 mL culture medium. After 7 or 10 days, adherent colonies were fixed, stained with 0.5% methylene blue for 30 min and colonies were counted using the Innotech Alpha Imager HP (91).
# A2058 cells = experiment: Annexin V / propidium iodide flow cytometry, A2058; assay type: cell-based, human
# Method: Apoptosis of cells were measured based on loss of membrane integrity using Annexin V-FITC Apoptosis Detection Kit as described by the supplier (BD Biosciences Pharmingen, San Diego, Calif.), in which the early- and late-death cells were stained with Annexin V-FITC and propidium iodide. Cells were analyzed using a CyAn ADP cytometer (Beckman Coulter Inc) to quantify fluorescence. Apoptotic cells were defined as Annexin V-FITC positive.
# [2] = Blood chemistries in C57 B mice; assay type: in vivo, mouse; settings: 4 mg/kg b.w. alternate day, 2 weeks
# Method: To evaluate the potential toxicity of COH-SR4 on animals, C57 B mice were treated with 0.1 mg/mice (4 mg/kg b.w.) of COH-SR4 or with vehicle on alternate day for 2 weeks (n=6). After the treatment period, blood and plasma/serum were isolated and analyzed. […] The plasma alanine transaminase (ALT) and alkaline phosphatase (ALP) were moderately higher in COH-SR4-treated mice (p<0.05), while the levels of two other liver enzymes; aspartate transaminase (AST) and lactate dehydrogenase (LDH) were similar with control mice (Table 5).
# H358 = experiment: Colony formation assay, H358; assay type: cell-based, human; settings: 1.5 μM
# Method: as §1
# (§2) The effect of COH-SR4 was first examined in a NCI panel of cancer cell lines, the results of which indicated good activity of COH-SR4 towards lung cancer (FIG. 78A). […] Values are presented as mean±SD from two separate determinations with eight replicates each (n=16) (FIG. 78B). The COH-SR4 treatment exerted a significant inhibitory effect on the survival of lung cancer cells [IC50: H1417 cells-1.2±0.2 μM, H1618 cells-1.5±0.2 μM, H358 cells-2.1±0.2 μM and H520 cells-2.4±0.3 μM]. […] Following initial screening for the anticancer activity of COH-SR4, the effect of COH-SR4 on clonogenic potential was studied. Standard colony-forming assay was performed and the colonies were counted using Innotech Alpha Imager HP. […] The effect of COH-SR4 on induction of apoptosis was further investigated. […] TUNEL assay was performed using Promega fluorescence detection kit and examined using Zeiss LSM 510 META laser-scanning fluorescence microscope with filters 520 and 620 nm. […]
# H520 = experiment: Colony formation assay, H520; assay type: cell-based, human; settings: 1.5 μM
# Method: as §1, §2
# H358 lung cancer tumor = experiment: Histopathology of H358 tumor sections; assay type: in vivo, mouse; settings: treated vs control
# Method: For lung cancer studies, control and COH-SR4 treated H358 lung cancer bearing mice tumor sections were used for histopathologic analyses. Immuno-histochemistry analyses were performed for Ki67, CD31, E-cadherin, and pAMPK expressions. […] Sections were counterstained with Hematoxylin (blue). Photomicrographs at 40× magnification were acquired using Olympus DP 72 microscope and were processed with DP2-BSW software. Percent staining was determined by measuring positive immuno-reactivity per unit area. The intensity of antigen staining was quantified by digital image analysis using Image Pro plus 6.3 software.
# Control and COH-SR4 treated tumor sections obtained from the in-vivo animal studies of Example 31 were used for histopathologic analyses. […] Arrows represent the area for positive staining for an antigen. Bars represent means with 95% confidence intervals (n=5). Asterisks denote statistically significant differences (p<0.001) compared with control by two-sided Student's t test. Statistical significance of difference was determined following image analyses as described in methods section.
smiles,measurement,setting,value
"O=C(Nc1cc(Cl)cc(Cl)c1)Nc1cc(Cl)cc(Cl)c1 [COH-SR4, 1,3-bis(3,5-dichlorophenyl) urea]",IC50,PBT-017; Table 1,2 µM
same,IC50,PBT-017; Table 2,2.1 µM
same,fraction of apoptotic cells,PBT-017 glioma cells,increased the fraction of apoptotic cells
same,"killing of CD133 positive, negative and unsorted cells",[1],effective in killing the CD133 positive glioma stem cells
same,colony formation in normal cells,HAVSMC; 1.5 μM,did not result in significant inhibition of colony formation
same,colony forming potential,"HAVSMC; Example 18, FIG. 65B",96±4%
same,colony forming potential,"HAVSMC; FIG. 67B, 5 μM",95±4%
same,apoptosis (annexin V / propidium iodide),A2058 cells,caused apoptosis in A2058 cells in a dose-dependent manner
same,Hematocrit,"[2]; mean ± SE, n=6",41.0 ± 0.7%
same,Hemoglobin,"[2]; mean ± SE, n=6",13.9 ± 0.4 g/dL
same,Platelets,"[2]; mean ± SE, n=6",1055 ± 124 ×10^3/uL
same,RBC,"[2]; mean ± SE, n=6",8.7 ± 0.2 ×10^6/uL
same,WBC,"[2]; mean ± SE, n=6",7.4 ± 0.9 ×10^3/uL
same,ALP,[2]; plasma/serum,119.3 ± 2.4 units/L
same,ALT,[2]; plasma/serum,73.3 ± 2.4 units/L
same,AST,[2]; plasma/serum,48.0 ± 3.0 units/L
same,Albumin,[2]; plasma/serum,2.4 ± 0.1 g/dL
same,Cholsterol,[2]; plasma/serum,82.0 ± 0.1 mg/dL
same,Creatinine,[2]; plasma/serum,0.2 ± 0.0 mg/dL
same,Glucose,[2]; plasma/serum,304.2 ± 21.1 mg/dL
same,LDH,[2]; plasma/serum,822.7 ± 56.0 units/L
same,Triglycerides,[2]; plasma/serum,78.7 ± 2.4 mg/dL
same,colony formation,H358,47±7%
same,colony formation,H520,54±5%
same,Ki67 and CD31 levels,H358 lung cancer tumor; ABC staining,"decreased the levels of proliferation marker Ki67, and angiogenesis marker CD31"
same,pAMPK and E-cadherin levels,H358 lung cancer tumor,increased the levels of pAMPK and normal differentiation marker E-cadherin
